Source: patent publication US5482858A, “Polypeptide linkers for production of biosynthetic proteins” (priority 1993, dated 1996)

Tests used:
[1] = tested on: 26-10 BABS (sFv), single chain biosynthetic antibody binding site VH-(Gly4-Ser)3-VL mimicking murine anti-digoxin monoclonal 26-10; test: Specificity determination by radioimmunoassay (inhibition of 125I-digoxin binding), 26-10 BABS
Description: After the plates were washed and blocked with 1% horse serum in PBSA, solutions (50 μl) containing 26-10 Fab or the BABS in either PBSA or 0.01M sodium acetate at pH 5.5 were added to the wells and incubated 2-3 hrs at room temperature.

[2] = target: anti-digoxin 26-10 Fab (murine monoclonal 26-10); test: Affinity determination by equilibrium binding of 3H-digoxin (immunoprecipitation), 26-10 Fab
Description: (§1) Association constants were measured by equilibrium binding studies. […] After 2-3 hrs of incubation at room temperature, the protein was precipitated by the addition of 100 μl goat antiserum to murine Fab fragment (ICN Immuno-Biologicals), 50 μl of the IgG fraction of rabbit anti-goat IgG (ICN ImmunoBiologicals), and 50 μl of a 10% suspension of protein A-Sepharose (Sigma). Following 2 hrs at 4° C., bound and free antigen were separated by vacuum filtration on glass fiber filters (Vacuum Filtration Manifold, Millipore, Bedford, Mass.). Filter disks were then counted in 5 ml of […] scintillation fluid with a Model 1500 Tri-Carb Liquid Scintillation Analyzer (Packard, Sterling, Va.). The Scatchard analyses of the untransformed radioligand binding data using LIGAND, a non-linear curve fitting program based on mass action. Ko s were also calculated by Sips plots and binding isotherms shown in FIG. 13A for the BABS and 13B for the Fab. […] These binding data are also plotted in linear form as Sips plots (inset), having the same abscissa as the binding isotherm but with the ordinate representing log r/(n-r), defined below.

[3] = target: 26-10 BABS, single chain biosynthetic antibody binding site VH-(Gly4-Ser)3-VL mimicking murine anti-digoxin monoclonal 26-10; test: Affinity determination by equilibrium binding of 3H-digoxin (immunoprecipitation), 26-10 BABS
Description: as §1

[4] = target: IgG2a,k monoclonal antibody 26-10 (parent anti-digoxin antibody); settings: cited from earlier work
[5] = normalizing glycoside Digoxigenin

Row | SMILES | normalized concentration of inhibitor giving 50% inhibition of 125I-digoxin binding [1, 5] | normalized concentration of inhibitor giving 50% inhibition of 125I-digoxin binding ([1]; normalizing glycoside Digoxin) | also measured
1 | C[C@]12CC[C@H](O)C[C@H]1CC[C@@H]1[C@@H]2C[C@@H](O)[C@]2(C)[C@@H](C3=CC(=O)OC3)CC[C@]12O [Digoxigenin] | 1.0 | 7.3 | 
2 | C[C@]12CC[C@H](O)C[C@H]1CC[C@@H]1[C@@H]2CC[C@]2(C)[C@@H](C3=CC(=O)OC3)CC[C@]12O [Digitoxigenin] | 0.4 | 2.6 | 
3 | C[C@H]1O[C@@H](O[C@H]2[C@@H](O)C[C@H](O[C@H]3[C@@H](O)C[C@H](O[C@H]4CC[C@@]5(C)[C@H](CC[C@@H]6[C@@H]5C[C@@H](O)[C@]5(C)[C@@H](C7=CC(=O)OC7)CC[C@]65O)C4)O[C@@H]3C)O[C@@H]2C)C[C@H](O)[C@@H]1O [Digoxin] |  |  | Association Constant, Ko (Fab) ([2]; Binding isotherm): 3.3e+08 M⁻¹; Association Constant, Ko (Fab) ([2]; Scatchard plot): (1.9 ± 0.2) × 10^8 M^-1; Association Constant, Ko (Fab) ([2]; Sips plot): 1.8e+08 M⁻¹; Association Constant, Ko (BABS) ([3]; Binding isotherm): 5.2e+07 M⁻¹; Association Constant, Ko (BABS) ([3]; Scatchard plot): (3.2 ± 0.9) × 10^7 M^-1; Association Constant, Ko (BABS) ([3]; Sips plot): 2.6e+07 M⁻¹; Kd [4]: 0.185 nM
4 | C[C@H]1O[C@@H](O[C@H]2[C@@H](O)C[C@H](O[C@H]3[C@@H](O)C[C@H](O[C@H]4CC[C@@]5(C)[C@H](CC[C@@H]6[C@@H]5CC[C@]5(C)[C@@H](C7=CC(=O)OC7)[C@@H](O)C[C@]65O)C4)O[C@@H]3C)O[C@@H]2C)C[C@H](O)[C@@H]1O [Gitoxin] | 8.5 | 62 | 
5 | C[C@@H]1O[C@@H](O[C@H]2C[C@@H](O)[C@]3(CO)[C@H]4[C@H](O)C[C@]5(C)[C@@H](C6=CC(=O)OC6)CC[C@]5(O)[C@@H]4CC[C@]3(O)C2)[C@H](O)[C@H](O)[C@H]1O [Ouabain] | 21 | 150 | 
6 | CC(=O)OC1CCC2(C=O)C3CCC4(C)C(C5=CC(=O)OC5)CCC4(O)C3CCC2(O)C1 (stereo not shown) [Acetyl Strophanthidin] | 0.8 | 5.9 | 
7 | C[C@H]1O[C@@H](O[C@H]2[C@@H](O)C[C@H](O[C@H]3[C@@H](O)C[C@H](O[C@H]4CC[C@@]5(C)[C@H](CC[C@@H]6[C@@H]5CC[C@]5(C)[C@@H](C7=CC(=O)OC7)CC[C@]65O)C4)O[C@@H]3C)O[C@@H]2C)C[C@H](O)[C@@H]1O [Digitoxin] | 0.3 | 2.0 | 
